Assay results: patent publication US12102633B2, “Spirolactone compounds” (Quixgen, Inc., priority 2017, dated 2024)

Columns and labels:
[1] = PK study in male C57 mouse for Examples 14 and 15; type: in vivo; conditions: for concentration at 0.5 h: 0.50 h
Description: Pharmacokinetic studies were carried out with male C57 mouse. Compounds (Example 14 and Example 15) were each formulated in 5% DMSO+10% Solutol HS 15+85% Saline, and dosed at 1 mpk for IV injection (5 mL/kg) and 10 mpk for oral gavage (10 mUkg). Plasma samples at various time points were quantitated with LC-MS. Data reported were average of three mice.
Tables 1 and 2 below show plasma concentrations (ng/mL) and PK parameters of Example 14 in male C57 mouse after 1 mpk IV injection and 10 mpk PO gavage, respectively. The plasma concentration (ng/mL) of the acid compound, Example 15, was also measured and reported below.
Tables 3 and 4 below show plasma concentrations (ng/mL) and PK parameters of Example 15 in male C57 mouse after 1 mpk IV injection and 10 mpk PO gavage, respectively.

human ACC2 = molecular target: T1, human ACC2 (Homo sapiens, UniProt O00763); assay: Human ACC enzymatic activity assay (ACC2); type: biochemical; conditions: purified human ACC2; read-out: EA-CoA hACC 2 IC50
T1 construct: purchased BPS Bioscience
T1 sequence (O00763 whole entry): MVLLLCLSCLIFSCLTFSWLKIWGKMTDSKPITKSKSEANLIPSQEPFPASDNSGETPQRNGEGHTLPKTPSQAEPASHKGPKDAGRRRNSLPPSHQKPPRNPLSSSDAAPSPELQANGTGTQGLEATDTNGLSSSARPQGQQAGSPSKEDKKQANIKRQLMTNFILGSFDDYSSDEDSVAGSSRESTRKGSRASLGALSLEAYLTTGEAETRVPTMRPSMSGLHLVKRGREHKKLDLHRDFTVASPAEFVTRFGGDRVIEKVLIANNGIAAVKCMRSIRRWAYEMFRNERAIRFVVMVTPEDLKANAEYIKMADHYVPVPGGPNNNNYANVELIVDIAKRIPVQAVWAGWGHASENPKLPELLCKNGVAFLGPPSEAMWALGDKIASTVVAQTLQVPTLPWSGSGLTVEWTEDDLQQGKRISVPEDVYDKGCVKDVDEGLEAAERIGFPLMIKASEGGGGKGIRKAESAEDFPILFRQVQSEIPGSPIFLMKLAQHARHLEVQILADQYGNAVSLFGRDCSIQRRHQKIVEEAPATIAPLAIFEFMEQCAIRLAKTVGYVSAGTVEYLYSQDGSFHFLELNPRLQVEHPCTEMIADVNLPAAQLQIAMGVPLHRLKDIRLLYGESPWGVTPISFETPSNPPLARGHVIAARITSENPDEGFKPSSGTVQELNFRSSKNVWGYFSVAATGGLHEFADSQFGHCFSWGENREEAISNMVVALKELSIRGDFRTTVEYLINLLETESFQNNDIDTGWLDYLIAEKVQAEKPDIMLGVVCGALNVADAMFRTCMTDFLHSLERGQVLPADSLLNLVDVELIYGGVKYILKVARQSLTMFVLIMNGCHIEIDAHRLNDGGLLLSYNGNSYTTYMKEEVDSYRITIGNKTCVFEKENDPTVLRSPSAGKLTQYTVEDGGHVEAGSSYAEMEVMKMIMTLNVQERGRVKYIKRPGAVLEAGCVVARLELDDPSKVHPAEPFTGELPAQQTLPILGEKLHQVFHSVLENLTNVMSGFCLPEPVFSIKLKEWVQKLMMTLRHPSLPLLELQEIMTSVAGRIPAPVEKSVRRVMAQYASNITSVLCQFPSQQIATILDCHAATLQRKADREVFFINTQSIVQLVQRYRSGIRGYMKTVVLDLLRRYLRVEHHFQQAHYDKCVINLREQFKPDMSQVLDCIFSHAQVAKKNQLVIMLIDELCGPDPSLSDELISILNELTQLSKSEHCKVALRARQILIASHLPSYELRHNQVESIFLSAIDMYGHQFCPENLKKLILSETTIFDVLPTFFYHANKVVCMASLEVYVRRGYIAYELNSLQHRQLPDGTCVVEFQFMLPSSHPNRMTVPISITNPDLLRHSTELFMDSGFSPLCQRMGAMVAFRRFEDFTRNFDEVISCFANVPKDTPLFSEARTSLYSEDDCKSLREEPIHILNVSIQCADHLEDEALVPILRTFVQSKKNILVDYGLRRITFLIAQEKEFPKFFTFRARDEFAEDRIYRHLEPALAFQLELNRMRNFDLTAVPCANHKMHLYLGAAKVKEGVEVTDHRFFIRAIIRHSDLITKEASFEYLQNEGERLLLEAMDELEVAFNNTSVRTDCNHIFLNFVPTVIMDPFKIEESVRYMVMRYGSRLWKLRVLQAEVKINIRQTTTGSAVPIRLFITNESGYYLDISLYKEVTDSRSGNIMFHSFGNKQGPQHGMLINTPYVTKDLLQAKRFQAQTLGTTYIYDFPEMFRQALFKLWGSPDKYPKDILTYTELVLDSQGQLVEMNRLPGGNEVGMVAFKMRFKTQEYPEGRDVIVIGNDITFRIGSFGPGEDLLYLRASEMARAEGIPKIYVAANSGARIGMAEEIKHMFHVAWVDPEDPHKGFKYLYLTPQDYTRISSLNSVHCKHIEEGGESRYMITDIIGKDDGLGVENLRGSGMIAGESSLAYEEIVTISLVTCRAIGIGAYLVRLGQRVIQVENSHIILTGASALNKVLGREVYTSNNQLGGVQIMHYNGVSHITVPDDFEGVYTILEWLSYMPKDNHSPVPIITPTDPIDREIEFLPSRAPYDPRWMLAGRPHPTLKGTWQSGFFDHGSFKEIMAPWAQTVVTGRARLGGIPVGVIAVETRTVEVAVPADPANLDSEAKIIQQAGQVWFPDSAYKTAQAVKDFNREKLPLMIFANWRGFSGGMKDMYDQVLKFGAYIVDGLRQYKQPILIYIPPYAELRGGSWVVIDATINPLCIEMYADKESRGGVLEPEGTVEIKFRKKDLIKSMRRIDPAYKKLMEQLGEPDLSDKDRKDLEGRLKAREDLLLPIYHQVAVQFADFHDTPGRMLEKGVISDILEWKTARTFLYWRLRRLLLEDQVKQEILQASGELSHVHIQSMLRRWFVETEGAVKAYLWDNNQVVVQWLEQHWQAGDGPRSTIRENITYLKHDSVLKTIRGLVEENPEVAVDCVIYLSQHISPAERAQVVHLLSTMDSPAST
Description: (§1) Human ACC enzymatic activity assays were performed by using purified human ACC1 and ACC2 proteins (BPS Bioscience). ACC1 and ACC2 proteins were diluted in 24.5 μL reaction buffer (50 mM HEPES pH 7.5, 10 mM MgCl2, 2.0 mM DTT, 4.0 mM ATP, 15 mM ^13C-NaHCO3, 0.75 mg/mL BSA, 0.5 mM sodium citrate), and final concentrations of ACC1 and ACC2 were 0.4 μg/mL and 0.48 μg/mL. For each reaction, 0.5 μL of serial diluted compounds were prepared in DMSO in duplicate or triplicate and mixed with the above 24.5 μL reaction mixtures with ACC proteins at 37° C. for 10 min. Meanwhile, 25 μL of reaction buffer plus acetyl-CoA (final concentration: 5 μM) was prepared freshly and added to the above 25 μL mixture to initiate the reaction. After incubation at 37° C. for 1-2 hours, 100 μl ice-cold 10% TCA with malonyl-^13C3-CoA (final concentration: 40 nM, Sigma-Aldrich) was added to terminate the reaction. For LC-MS/MS analysis, 300 μL quenching buffer (acetonitrile:methanol=1:1, 20 μM carbutamide as internal standard) was added to each tube and mixed well. Samples were then centrifuged at 14,000 rpm for 10 min (Eppendorf) and supernatants were loaded onto LC-MS/MS for quantitation of […] (Gao et al., Journal of chromatography B, Analytical technologies in the biomedical and life sciences 853, 303-313 (2007)).
(§2) Shimadzu LC system was used for sample analysis consisting of system controller (Shimadzu CBM-20A), autosampler (Shimadzu SIL-20A), pump A and B (Shimadzu LC-20AD), column oven (Shimadzu CTO-20A), and analytical column (Phenomenex Gemini 5u C18 11A, 100×2 mm). LC was running at 200 μL/min in the binary gradient mode with mobile phase A (5 mM Ammonium Acetate and 5 mM DMBA in water (1,3-Dimethylbutylamine)) and B (methanol). The samples were analyzed on an AB Sciex QTrap4000 LC-MS/MS triple quadrupole mass spectrometer (Applied Biosystems). Malonyl-CoA and malonyl-13C-CoA were monitored in positive ion mode following MRM transitions at 854.2/347.1 and 855.1/246.1, respectively. The product and internal standard were coeluted to the mass spectrometer in 3 s with 50% H2O, 25% MeCN, 25% acetone, and 5 mM ammonium acetate. Ion chromatograms were integrated using the Analyst 1.5.2 software. Peak area ratios were compared against a standard curve and final cellular concentration of malonyl-CoA or production rate of malonyl-13C-CoA was calculated as pmoles/mg protein per minute.

human ACC1 = molecular target: T2, human ACC1 (Homo sapiens, UniProt Q13085); assay: Human ACC enzymatic activity assay (ACC1); type: biochemical; conditions: purified human ACC1; read-out: EA-CoA hACC 1 IC50
T2 construct: purchased BPS Bioscience
Description: as §1, §2

[2] = male, C57, mouse, plasma, iv, 1 mg/kg, Example 14 dosed 1 mpk IV, analyte = labelled compound
[3] = male, C57, mouse, plasma, iv, 1 mg/kg, Example 15 dosed 1 mpk IV
[4] = male, C57, mouse, plasma, po, 10 mg/kg, Example 14 dosed 10 mpk PO gavage, analyte = labelled compound
[5] = male, C57, mouse, plasma, po, 10 mg/kg, Example 15 dosed 10 mpk PO gavage
[6] = plasma, 1 mg/kg, Example 15 dosed 1 mpk IV

Plasma Concentration, Mean ([1]; Example 14 dosed 1 mpk IV, 24.00 h, analyte = labelled compound): BLQ
Plasma Concentration, Mean ([1]; Example 15 dosed 1 mpk IV, 4.00 h): BLQ
Plasma Concentration, Mean ([1]; Example 15 dosed 1 mpk IV, 8.00 h): BLQ
Plasma Concentration, Mean ([1]; Example 15 dosed 1 mpk IV, 24.00 h): BLQ
F ([1]; Example 15 dosed 10 mpk PO gavage): 1.7%
Plasma Concentration, Mean ([1]; Example 15 dosed 10 mpk PO gavage, 24.00 h): BLQ
concentration at 0.08 h [1, 2]: 122 ng/mL
concentration at 0.25 h [1, 2]: 161 ng/mL
concentration at 0.5 h [1, 2]: 107 ng/mL
concentration at 1 h [1, 2]: 55 ng/mL
concentration at 2 h [1, 2]: 16 ng/mL
concentration at 4 h ([1]; male, C57, mouse, plasma, iv, 1 mg/kg, Example 14 dosed 1 mpk IV, 4.00 h, analyte = labelled compound): 3.4 ng/mL
concentration at 8 h ([1]; male, C57, mouse, plasma, iv, 1 mg/kg, Example 14 dosed 1 mpk IV, 8.00 h, analyte = labelled compound): 1.5 ng/mL
MRT [1, 3]: 6.6 min
concentration at 0.08 h [1, 3]: 3010 ng/mL
concentration at 0.25 h [1, 3]: 414 ng/mL
concentration at 0.5 h [1, 3]: 95 ng/mL
concentration at 1 h [1, 3]: 28 ng/mL
concentration at 2 h [1, 3]: 6.6 ng/mL
concentration at 0.25 h [1, 4]: 152 ng/mL
concentration at 0.5 h [1, 4]: 168 ng/mL
concentration at 1 h [1, 4]: 146 ng/mL
concentration at 2 h [1, 4]: 84 ng/mL
concentration at 4 h ([1]; male, C57, mouse, plasma, po, 10 mg/kg, Example 14 dosed 10 mpk PO gavage, 4.00 h, analyte = labelled compound): 43 ng/mL
concentration at 8 h ([1]; male, C57, mouse, plasma, po, 10 mg/kg, Example 14 dosed 10 mpk PO gavage, 8.00 h, analyte = labelled compound): 23 ng/mL
concentration at 24 h ([1]; male, C57, mouse, plasma, po, 10 mg/kg, Example 14 dosed 10 mpk PO gavage, 24.00 h, analyte = labelled compound): 2.1 ng/mL
Cmax [1, 4]: 185 ng/mL
MRT [1, 4]: 186 min
Tmax [1, 4]: 34.8 min
Cmax [1, 5]: 164 ng/mL
MRT [1, 5]: 59.4 min
Tmax [1, 5]: 15 min
concentration at 0.25 h [1, 5]: 164 ng/mL
concentration at 0.5 h [1, 5]: 99 ng/mL
concentration at 1 h [1, 5]: 63 ng/mL
concentration at 2 h [1, 5]: 11 ng/mL
concentration at 4 h ([1]; male, C57, mouse, plasma, po, 10 mg/kg, Example 15 dosed 10 mpk PO gavage, 4.00 h): 3.2 ng/mL
concentration at 8 h ([1]; male, C57, mouse, plasma, po, 10 mg/kg, Example 15 dosed 10 mpk PO gavage, 8.00 h): 2 ng/mL
Vd [1, 6]: 0.49 L/kg
clearance [1, 6]: 23.3 mL/min/kg
half-life [1, 6]: 17.4 min
IC50 (human ACC2): 33 nM
IC50 (human ACC1): 27.5 nM
SMILES: COc1cc(C(=O)N2CCC3(CC2)Cc2ccc(-c4cncc(C(=O)O)c4)cc2C(=O)O3)nc2c(OC)cccc12 [Example 15, 5-(1′-(4,8-dimethoxyquinoline-2-carbonyl)-1-oxospiro [isochroman-3,4′-piperidin]-7-yl)nicotinic acid]
